# Assay results: patent publication US20070212717A1, “Method for Inhibiting Hepatitis C Virus Replication” (priority 2006, published 2007)
# How the values were obtained:
# [1] = test system: PIK4CA transcript; test: siRNA transfection of MP1 cells, real-time RT-PCR of PIK4CA transcript levels; format: cell-based, human
# Excerpt: In order to confirm that knockdown of PI4K inhibits HCV RNA replication, an independent method of suppressing the host gene using siRNA synthetic oligonucleotides, is implemented. […] The effect is specific in that transfection of non-specific oligonucleotides elicits no effect on HCV RNA replication. For the siRNA oligo transfection experiments, the MP1 cells (human hepatoma Huh-7 cell line harboring HCV RNA replicon with a luciferase reporter gene, as described above) are also used. Cells are maintained in DMEM High glucose (Wisent Inc.) supplemented with 10% fetal bovine serum (FBS; HyClone) containing neomycin (250 μg/ml) (Geneticin; Invitrogen). The assay medium lacks the neomycin. […]
# (§1) The negative control corresponds to a no match NS5B sequence (AAGAGAGUCAGUCAGCUAAUCAC) [SEQ ID NO. […] Moreover, RNA is also isolated (using the 96-well Qiagen extraction method as described in example 1) from a replicate plate of transfected cells such that real-time RT-PCR quantifying HCV replicon copy number (as described in example 1) and cellular transcript RNA levels are performed. The method of quantifying host transcript RNA levels is similar to HCV RNA quantification except that the primers and the TaqMan probe are specific for the PIK4CA gene. […]
# A standard curve for a relative quantification of PIK4CA transcript expression per μg total RNA is established for each transcript. […]
# [2] = test system: HCV RNA replicon; test: siRNA transfection of MP1 cells, HCV replicon luciferase assay; format: cell-based, hepatitis C virus; details: luciferase reporter or HCV RNA
# Experimental: The “Luciferase assay system” from Promega is used to measure firefly luciferase (reporter) expression in the MP1 cell line in a 96-well format with the following protocol: • Prepare the Luciferase assay reagent by adding Luciferase assay buffer to the vial containing the lyophilized Luciferase assay substrate • Prepare 1× Luciferase cell culture lysis reagent by adding 4 volumes of water to 1 volume of 5× lysis buffer • Carefully remove the assay medium from cells • Rinse cells with 100 μl PBS buffer being careful to not dislodge attached cells • A black backing tape (Packard) is applied on bottom side of the 96-well black clear bottom plate. • Aliquot 30 μl/well of 1× Luciferase cell culture lysis reagent • Incubate at room temperature 10 minutes minimum • Aliquot 150 μl/well of Luciferase assay reagent and immediately measure the light produced on a TopCount NXT Instrument (Packard) (count time=2 s/well) […]
# as §1, with “performed.” for “performed. The method of quantifying host transcript RNA levels is similar to HCV RNA quantification except that the primers and the TaqMan probe are specific for the PIK4CA gene.”
# [3] = test system: hepatitis C virus; details: two day clinical trial; cited from earlier work
Molecule,"reduction of PIK4CA transcript levels ([1]; 10 nM siRNA, RT-PCR, relative to DharmaFECT only)",inhibition of HCV replicon levels [2],effect on PIK4CA transcript levels ([1]; controls (siRNA 10 nM; BILN 2061 100 nM)),viral loads in patients infected with the hepatitis C virus [3]
"PIK4CA siRNA #9: siRNA (si Genome duplex, Dharmacon) with defined sequence # 9 targeting a segment on the host transcript (GCAGAAATTTGGCCTGTTT; listed as DNA, further chemistry not given here)",~25%,proportionally lower inhibition,,
COc1ccc2c(O[C@@H]3C[C@H]4C(=O)N[C@]5(C(=O)O)C[C@H]5/C=C\CCCCC[C@H](NC(=O)OC5CCCC5)C(=O)N4C3)cc(-c3csc(NC(C)C)n3)nc2c1 [BILN2061],,,no effect,effective in rapidly reducing viral loads
